Laboratory results taken from patent publication US5817648A, “Vitamin D3 analogues having an unsaturated side chain” (Duphar International Research B.V., priority 1995, dated 1998).

Experiments:
[1] = system: Vitamin D binding protein (DBP); assay: Affinity to vitamin D binding protein (competition with 3H-1α,25-DHCC); conditions: DBP purified from total human serum
Description: Vitamin D binding protein (DBP) is the specific carrier for vitamin D and its metabolites in blood. The biological activity of vitamin D compounds depends on their binding to DBP, because strong binding to DBP will reduce the intracellular access to the VDR. Binding to the DBP may also influence the half-life of the vitamin D derivatives in circulation. Weak binders are rapidly metabolized, which is a favourable aspect in topical application.
In the assay, DBP is incubated with ^3 H-1α,25-DHCC and 1α,25-DHCC or with the vitamin D compounds to be investigated. To this purpose, the vitamin compounds are dissolved in ethanol in concentrations ranging from 10^-11 to […]. The percentage bound/unbound ^3 H-1α,25-DHCC is then calculated. DBP is purified from total human serum. Both 24,24-dihomo-.increment.(24-24a)-calcitriol and 24,24-dihomo-.increment.(24a-24b)-calcitriol are much weaker binders to the DBP than calcitriol (2% and 3.5% respectively).

[2] = target: T1, calf thymus intracellular vitamin D receptor (VDR) (Bos taurus, UniProt Q28037); assay: Affinity to intracellular vitamin D receptor (displacement of 3H-1α,25-DHCC); format: binding
T1 construct: calf thymus intracellular vitamin D receptor (VDR); from tissue; host or cells: calf thymus
T1 sequence (Q28037 1-426): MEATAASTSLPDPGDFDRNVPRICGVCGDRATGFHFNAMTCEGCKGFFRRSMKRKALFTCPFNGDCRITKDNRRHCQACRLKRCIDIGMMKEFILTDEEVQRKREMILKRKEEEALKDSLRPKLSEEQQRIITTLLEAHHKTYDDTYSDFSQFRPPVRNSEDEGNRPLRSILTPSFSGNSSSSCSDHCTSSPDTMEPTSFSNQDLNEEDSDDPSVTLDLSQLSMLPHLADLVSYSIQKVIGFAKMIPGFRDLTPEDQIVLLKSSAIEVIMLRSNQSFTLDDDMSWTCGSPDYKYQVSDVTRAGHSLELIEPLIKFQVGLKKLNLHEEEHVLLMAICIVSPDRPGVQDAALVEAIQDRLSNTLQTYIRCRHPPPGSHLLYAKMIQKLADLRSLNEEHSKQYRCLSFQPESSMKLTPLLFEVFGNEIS
From the text: In this assay, ^3 H-1α,25-dihydroxycholecalciferol (^3 H-1α,25-DHCC), which is specifically bound to the VDR, is replaced by the tested compounds. […] 9 times that of calcitriol. A high affinity towards the VDR is indicative for biologically active compounds.

[3] = system: human leukemic cell line HL-60; assay: Cell differentiation in HL-60 assay (NBT reduction); format: cell-based; conditions: compared with calcitriol
Description: The vitamin D compounds to be investigated are dissolved in ethanol in concentrations ranging from 10^-12 to 10^-6 M and tested for their capacity to induce cell differentiation in a HL-60 assay. In this assay, biochemical examination of the human leukemic cell line HL-60 is performed, in order to establish whether cell differentiation has taken place.
Differentiation is expressed as the maturation parameter nitroblue tetrazolium (NBT) reduction. After culturing with the known calcitriol or with the vitamin D compounds to be investigated, the percentage of cells containing black formazan deposits is determined. An increase in the percentage of NBT reducing cells indicates an increase in cell differentiation.
Proliferation and vitality of the cell cultures are established by counting the number of cells and by the trypan blue exclusion method.

binding to the DBP relative to calcitriol [1] [%] | affinity towards the VDR relative to calcitriol ([2]; relative to calcitriol) [%] | affinity towards the VDR, times that of calcitriol [2] | Compound | activity in inducing differentiation of HL-60 cells, times less active than calcitriol [3] [times less active] | activity in inducing differentiation and maturation of the HL-60 cells (in words) [3]
2 | ≤ 1 | – | C=C1/C(=C\C=C2/CCC[C@]3(C)[C@@H]([C@H](C)CC/C=C/CC(C)(C)O)CC[C@@H]23)C[C@@H](O)C[C@@H]1O [24,24-dihomo-.increment.(24-24a)calcitriol] | 4 | –
– | – | – | C=C1/C(=C\C=C2/CCC[C@]3(C)[C@@H]([C@H](C)CCCC(C)(C)O)CC[C@@H]23)C[C@@H](O)C[C@@H]1O [Calcitriol, calcitriol] | – | equally active
3.5 | – | 9 times that of calcitriol | C=C1/C(=C\C=C2/CCC[C@]3(C)[C@@H]([C@H](C)CCC/C=C/C(C)(C)O)CC[C@@H]23)C[C@@H](O)C[C@@H]1O [Compound 16, (5Z,7E)-(1S,3R)-9,10-Seco-24a,24b-dihomo-(24aE)-5,7,10(19),24a-cholestatetraen-1,3,25-triol] | – | equally active
